Key:
[1] = biological target: T1, RPA-AB construct (RPA70 AB domain) (Homo sapiens, UniProt P27694); test: Differential scanning fluorimetry (DSF); type: binding
T1 construct: The DBD-A/B construct was expressed as a His6-RPA181-422 fusion protein; His6 (N); made in house; host or cells: E. coli BL21 (DE3)
Method: In order to probe the potential role of DNA intercalation as a mechanism for RPA inhibition, compounds 19, 23, 26, 27, 43 and 45 were analyzed using FID assay along with doxorubicin (Dox) as a positive control. […] In addition, direct binding of 9 derivatives to the target protein was assessed using a differential scan fluorimetry (DSF) assay. This assay assesses the melting profile of a protein at increasing temperatures via fluorescent dye binding. The direct interaction of a small molecule to the target protein can either increase or decrease the melting temperature (Tm) of the target depending on the specific protein and their interactions. […] Heparin sulfate, a known RPA interacting molecule often used in the purification of the protein was used as a control. […] (data not shown). […] (FIG. 1B).
The interaction of compound 43 with RPA-AB constructs was performed by differential scanning fluorimetry using GloMelt™ Dye (Biotum). […] Reactions were run in an ABI 7500 real time PCR machine with temperature increasing from 25° C. to 99° C. at a 2% ramp (˜40 minutes) and fluorescence of the reporter was measured on the SYBR® Green setting. […] Data was uploaded to TSA-CRAFT software and Tm calculated as described by Lee et al. Heparin was employed as a positive control of binding to the AB-box of RPA.

H460 NSCLC cells [2] = test: Cell survival, CCK-8 metabolic assay, single agent; type: cell-based
Method: (§1) Cell survival was determined by CCK-8 viability assay and/or clonogenic survival assay in 96 well plates or 24 well plates, respectively and combination index (CI) analysis of drug-drug interactions determined by Chou-Talalay analysis as we have previously described. • 1) CCK-8 metabolic assay: Cells were plated (2500 cells/well) in 96-well plate and allowed to grow for at least 18 hours in at 37° C. in the presence of 5% CO2 before treatment with inhibitor for 48 hours. CCK-8 solution (Dojindo) was added to 10% of the total media volume and after 1-4 hours of incubation absorbance at 450 nm was determined using BioTek® Synergy™ H1 hybrid multi-mode microplate reader • 2) Clonogenic survival assay: Cells were plated in a 24 well (20,000 cells/well) plate, incubated for at least 18 hours and then treated with inhibitor. […] Images of the stained colonies were captured with a Fuji LAS-3000 CCD system then counted using OpenCFU software. Viability is determined as a percent of vehicle controls and plotted versus drug concentration. • 3) Assessment of synergy via combination index (CI): In the combination index studies, cells (H460 or SKGT4) were treated with RPA inhibitor and Pt/etoposide/bleomycin/taxol/DDR inhibitor alone as well as the combination of both—the inhibitor and the DNA damaging chemotherapeutic agent/DDR inhibitor. […]

[3] = system: A2780 epithelial ovarian cancer (EOC) cells; test: Cell survival, single agent; type: cell-based
Method: as §1

[4] = system: GCT27 testicular cancer cells; test: Cell survival, single agent; type: cell-based
Method: as §1

H460 NSCLC cells [5] = test: Combination index (Chou-Talalay), CCK-8 assay; type: cell-based
Method: (§2) Cell survival was determined by CCK-8 viability assay and/or clonogenic survival assay in 96 well plates or 24 well plates, respectively and combination index (CI) analysis of drug-drug interactions determined by Chou-Talalay analysis as we have previously described. • 1) CCK-8 metabolic assay: Cells were plated (2500 cells/well) in 96-well plate and allowed to grow for at least 18 hours in at 37° C. in the presence of 5% CO2 before treatment with inhibitor for 48 hours. CCK-8 solution (Dojindo) was added to 10% of the total media volume and after 1-4 hours of incubation absorbance at 450 nm was determined using BioTek® Synergy™ H1 hybrid multi-mode microplate reader • 2) Clonogenic survival assay: Cells were plated in a 24 well (20,000 cells/well) plate, incubated for at least 18 hours and then treated with inhibitor. After 48 hours of treatment, the cells are re-plated in 10 cm dishes (500 cells/dish) and incubated for 8-10 days to allow colony formation. Plates are washed with PBS, fixed with glutaraldehyde and stained with crystal violet. Images of the stained colonies were captured with a Fuji LAS-3000 CCD system then counted using OpenCFU software. Viability is determined as a percent of vehicle controls and plotted versus drug concentration. • 3) Assessment of synergy via combination index (CI): In the combination index studies, cells (H460 or SKGT4) were treated with RPA inhibitor and Pt/etoposide/bleomycin/taxol/DDR inhibitor alone as well as the combination of both—the inhibitor and the DNA damaging chemotherapeutic agent/DDR inhibitor. The range of treatment was dependent on the IC50 of each inhibitor/drug. If the IC50 was X, then the cells were treated at a range of 0.04× to 5× concentration in a CCK-8 metabolic assay. The kill curves from both the single agent treatments as well as the combination treatment were used in a Chou-Talalay based method to determine the combination index (CI) at different fractions of cells affected.^40 A CI>1.0 indicates antagonism between the two agents, while a CI<1.0 indicates synergy.
(§3) Inhibiting RPA can act synergistically with DNA damaging therapeutics including cisplatin and etoposide (FIG. 4C). In these studies, we used the Chou-Talalay method, which provides a combination index (CI) that quantifies synergistic activity for each drug combination. […] The synergistic activity of compounds described herein with DNA damaging agents may be explained by RPA's role in the DNA damage response and signaling.

SKGT-4 EAC cells = test: Combination index (Chou-Talalay), CCK-8 assay; type: cell-based
Method: as §2, §3

T1 sequence (P27694 181-422): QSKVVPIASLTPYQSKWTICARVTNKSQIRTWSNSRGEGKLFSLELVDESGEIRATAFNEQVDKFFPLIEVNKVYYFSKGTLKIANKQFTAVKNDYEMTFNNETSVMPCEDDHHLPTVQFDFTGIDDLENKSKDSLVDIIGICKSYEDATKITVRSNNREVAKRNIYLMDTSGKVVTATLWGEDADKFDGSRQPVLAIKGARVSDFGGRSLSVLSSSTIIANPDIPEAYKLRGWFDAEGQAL

CCOc1ccc2cc(C3CC(c4ccc(I)cc4)=NN3C(=O)CCCC(=O)NCCCN3CCOCC3)c(Cl)nc2c1 (centres unmarked) [Compound 43, 5-(5-(2-Chloro-7-ethoxyquinolin-3-yl)-3-(4-iodophenyl)-4,5-dihydro-1H-pyrazol-1-yl)-N-(3-morpholinopropyl)-5-oxopentanamide]
increase in Tm [1]: 0.6 °C | cellular anticancer activity compared to compound 9 (H460 NSCLC cells [2]): increase in cellular anticancer activity | cytotoxicity as compared to H460 NSCLC cells [3]: increased cytotoxicity | cytotoxicity as compared to H460 NSCLC cells [4]: increased cytotoxicity | synergy (combination index) with bleomycin (H460 NSCLC cells [5]): stronger synergy | synergy (combination index) with DNA damaging therapeutics cisplatin and etoposide (H460 NSCLC cells [5]; CI <1.0 = synergy): even greater synergy than either of its predecessors | synergy with PARP, DNA-PK, ATR and WEE1 inhibitors (SKGT-4 EAC cells; EAC cell model, BMN637, NU7441, VE821, MK1775): effectively synergizes | combination interaction with taxol (SKGT-4 EAC cells; SKGT-4 EAC cells, Chou-Talalay): additive interaction

Source: US12486246B2, “Replication protein A (RPA)-DNA interaction inhibitors” (THE TRUSTEES OF INDIANA UNIVERSITY, priority 2019, dated 2025)
